Like-named read-outs stand apart in the source and are kept apart here.
Experiments:
[1] = tested on: normal and tumor cell types; test: cells; details: for IC50: read-out: IC50 (μM), Average
Protocol: (§1) Growth Inhibition Studies. Cells growing exponentially were transferred to 384-well flat bottom tissue culture plates. All cell types were plated at a density of 500 cells per well in 25 μL of complete medium (RPMI 1640+10% fetal bovine serum+antibiotics/antimycotics). After 24 hours (day 0), 25 μL of complete medium containing the experimental compounds over the dose range of 10^ñ3 to 10^ñ10 M were added in triplicate. Drug exposure time was 120 hours (day 5), after which growth inhibition was assayed. 5 μL of the redox indicator, alamarBlue, was added to each well (10% v/v). After 4 hours incubation at 37° C., fluorescence was monitored at 535 nm excitation and 595 nm emission.
(§2) Concentration vs. relative fluorescence units (RFU) were plotted, and sigmoid curves were fit using the Hill equation.
Assays were carried out as described in Methods, above. Therapeutic index is calculated as the ratio of the average IC50 for normal cells to the average IC50 for tumor cells. All assays were done at least three times.

C/HT1080 cells = test: alamarBlue cytotoxicity, control-transfected HT1080; format: cell-based, human; details: C/HT1080, TS Level 100%
Protocol: Cell lines and transfection. HT1080 cells were grown in PRM11640 medium supplemented with 10% fetal calf serum, and transfected with GFP-TS expression vector. 48 hours after, transfection cells were tripsinized and replated in culture medium containing 750 μg/ml G418. After selection with G418 for two weeks, surviving cells were sorted based upon fluorescence expression. One clone with higher fluorescence expression (named as TSH/HT1080) and one clone with lower fluorescence expression (named as TSL/HT1080) were selected and expanded into cells lines. The stable HT1080 cells transfected with pEGFP-C3 were used as control.
Construction of GFP-TS expression vector. […] The cDNA was cloned into HindIII and KpnI sites of mammalian expression vector pEGFP-C3 (Clontech Laboratories. Inc., Palo Alto, Calif.), in-frame with GFP sequence. The cDNA insert was confirmed by DNA sequencing.
Growth Inhibition Studies. Cells growing exponentially were transferred to 384-well flat bottom tissue culture plates. All cell types were plated at a density of 500 cells per well in 25 μL of complete medium (RPMI 1640+10% fetal bovine serum+antibiotics/antimycotics). […] After 4 hours incubation at 37° C., fluorescence was monitored at 535 nm excitation and 595 nm emission.
as §2

[2] = tested on: collagen induced arthritis; test: Collagen induced arthritis in DBA/1 mice; format: in vivo, mouse; details: vs saline-treated control; NB1011 2.5 mg per day intraperitoneal
Protocol: Arthritis was induced in male DBA/1 mice (8-10 weeks old) by intradermal injection of bovine type II collagen, purified in-house at the Kennedy Institute of Rheumatology as previously described (Miller, E. J. et al. (1972)). Collagen was administered in complete Freund's adjuvant (Difco, Detroit, Mich.). Onset of arthritis is expected to be variable. Arthritis onset is considered to occur on the day that swelling and/or erythema were observed. Clinical score is a composite of disease severity and the number of limbs affected, and is monitored daily from onset of disease and used as an assessment of disease progress. An example for scoring is: 0, Normal; 1, slight swelling with erythema; 2, pronounced swelling; 3, joint rigidity. In addition, the extent of paw swelling reflects the degree of edema in affected limbs.
NB1011 was administered daily by intraperitoneal administration at 2.5 mg total dose per day.
Following immunization with collagen, mice were maintained until a significant clinical score for disease progression was achieved (between 2.5 and 3.5). Mice were then treated with control saline injections, NB1011, or with anti-TNF antibody as a positive control. […] Paw swelling is an alternative measure of CIA disease severity.

[3] = tested on: SKHEP1 (Liver) tumor cells; test: alamarBlue growth inhibition, SKHEP1; format: cell-based, human; details: 120 hours
Protocol: as §1, with “Drug exposure time was 120 hours (day 5), after which growth inhibition was assayed.” left out
as §2

[4] = tested on: N1S1 cells, 5FU selection; test: alamarBlue cytotoxicity, N1S1 5FU-selected; format: cell-based; details: N1S1, Drug Selection 5FU; read-out: NB1011-IC50
Protocol: as §1, with “Drug exposure time was 120 hours (day 5), after which growth inhibition was assayed.” left out
as §2
(§3) Cells were grown and characterized as described above. TS expression level is relative to CCD18co, a normal colon epithelial cell line. Tritium release is background substracted as described in Methods. ND=Not detectable above background.

[5] = tested on: MCF7 (Breast) tumor cells; test: alamarBlue growth inhibition, MCF7; format: cell-based, human
Protocol: as §1, with “Drug exposure time was 120 hours (day 5), after which growth inhibition was assayed.” left out
as §2

W138 (Lung) normal cells = test: alamarBlue growth inhibition, W138; format: cell-based, human; details: 120 hours
Protocol: as §1, with “Drug exposure time was 120 hours (day 5), after which growth inhibition was assayed.” left out
as §2

NHDF (Skin) normal cells = test: alamarBlue growth inhibition, NHDF; format: cell-based, human; details: 120 hours
Protocol: as §1, with “Drug exposure time was 120 hours (day 5), after which growth inhibition was assayed.” left out
as §2

[6] = tested on: COLO320 (Colon) tumor cells; test: alamarBlue growth inhibition, COLO320; format: cell-based, human; details: 120 hours
Protocol: as §1, with “Drug exposure time was 120 hours (day 5), after which growth inhibition was assayed.” left out
as §2

[7] = tested on: RKO colon cancer cells, TDX selection; test: alamarBlue cytotoxicity, RKO TDX-selected; format: cell-based, human; details: Drug Selection TDX, read-out: NB1011-IC50
Protocol: as §1, with “Drug exposure time was 120 hours (day 5), after which growth inhibition was assayed.” left out
as §2, §3

[8] = tested on: NHOST (Bone) normal cells; test: alamarBlue growth inhibition, NHOST; format: cell-based, human; details: 120 hours
Protocol: as §1, with “Drug exposure time was 120 hours (day 5), after which growth inhibition was assayed.” left out
as §2

[9] = tested on: CCD18co normal colon epithelial cells; test: alamarBlue growth inhibition, CCD18co; format: cell-based, human
Protocol: as §1, with “Drug exposure time was 120 hours (day 5), after which growth inhibition was assayed.” left out
as §2

[10] = tested on: SW527 (Breast) tumor cells; test: alamarBlue growth inhibition, SW527; format: cell-based, human; details: 120 hours
Protocol: as §1, with “Drug exposure time was 120 hours (day 5), after which growth inhibition was assayed.” left out
as §2

MRC9 (Lung) normal cells = test: alamarBlue growth inhibition, MRC9; format: cell-based, human; details: 120 hours
Protocol: as §1, with “Drug exposure time was 120 hours (day 5), after which growth inhibition was assayed.” left out
as §2

[11] = tested on: TDX-resistant MCF7 breast tumor cells; test: Tomudex inhibition of NB1011 cytotoxicity (Tomudex rescue assay, alamarBlue); details: for IC50: read-out: NB1011 IC50
Protocol: Tomudex Inhibition of NB1011 Cytotoxicity. MCF7-TDX were transferred to a 384 well assay plate at 500 cells in 25 μL complete medium per well. After 24 hours (day 0), 25 μL complete medium containing a combination of NB1011 in doubling serial dilutions from 1 mM and tomudex at discrete concentrations (0,1,10,100,1000 nM) were added in duplicate. Drug exposure time was 120 hours (day 5) after which growth inhibition was measured with alamarBlue as described above in Growth Inhibition Studies (above).
Tomudex is a chemotherapeutic that acts primarily via inhibition of TS. If NB1011 exerts cytotoxicity via the TS enzyme, then inhibition of TS with Tomudex should decrease NB1011-mediated cytotoxicity. […] Cells were plated and exposed to indicated concentrations of compound(s) as described above.

[12] = tested on: SKCO1 (Colon) tumor cells; test: alamarBlue growth inhibition, SKCO1; format: cell-based, human; details: 120 hours
Protocol: as §1, with “Drug exposure time was 120 hours (day 5), after which growth inhibition was assayed.” left out
as §2

NHA (Brain) normal cells = test: alamarBlue growth inhibition, NHA; format: cell-based, human; details: 120 hours
Protocol: as §1, with “Drug exposure time was 120 hours (day 5), after which growth inhibition was assayed.” left out
as §2

N1S1 cells = test: alamarBlue cytotoxicity, N1S1 parental; format: cell-based; details: N1S1, Drug Selection None; read-out: NB1011-IC50
Protocol: as §1, with “Drug exposure time was 120 hours (day 5), after which growth inhibition was assayed.” left out
as §2, §3

5-(2-Bromovinyl)-2′-deoxyuridine phenyl N-methoxy-L-alaninyl phosphoramidate [NB1011]
improvement in therapeutic index as compared with 5-FU ([1]; (2)×(3)): 6 fold
more cytotoxic to tumor cells vs. normal cells ([1]; overall, panel): about 2 fold
IC50 ([1]; average of the 11 normal cell types): 561 µM
IC50 ([1]; average of the 21 tumor cell lines): 288 µM
IC50 (C/HT1080 cells): 320 µM
clinical score (disease suppression) [2]: significant disease suppression
paw swelling (disease suppression) [2]: significant disease suppression
IC50 [3]: 247 µM
IC50 [4]: 204 µM
IC50 ([5]; MCF7, alamarBlue, read-out: IC50): 291 µM
IC50 ([5]; MCF7 Breast cancer, Drug Selection None, read-out: NB1011-IC50): 327 µM
IC50 ([5]; Tumor Cells: MCF7 (Breast), alamarBlue, 120 hours, read-out: IC50): 141 µM
IC50 (W138 (Lung) normal cells): 335 µM
IC50 (NHDF (Skin) normal cells): 359 µM
IC50 [6]: 401 µM
IC50 [7]: 28 µM
IC50 [8]: 642 µM
IC50 ([9]; Normal Cells: CCD1800 (Colon), alamarBlue, 120 hours): 562 µM
IC50 ([9]; normal colon epithelial cells (CCD18co), comparison with 5FUdR): > 2500 µM
IC50 [10]: 431 µM
IC50 (MRC9 (Lung) normal cells): 303 µM
inhibition of NB1011-mediated cytotoxicity by blockade of TS with Tomudex ([11]; maximum (up to)): about 25 fold
IC50 ([11]; [Tomudex] 0 nM): 5.7 µM
IC50 ([11]; [Tomudex] 1 nM): 25.5 µM
IC50 ([11]; [Tomudex] 10 nM): 87.7 µM
IC50 ([11]; [Tomudex] 100 nM): 140 µM
IC50 ([11]; [Tomudex] 1000 nM): 103 µM
IC50 [12]: 184 µM
IC50 (NHA (Brain) normal cells): 839 µM
IC50 (N1S1 cells): 494 µM

From patent US7462605B2, “Phosphoramidate compounds and methods of use” (Celmed Oncology (USA), Inc., priority 2002, dated 2008)
